Laboratory results as given in patent US20220133688A1, “MACROCYCLIC LACTONE ANTHELMINTICS AGAINST NEMATODES” (Bayer Animal Health GmbH, priority 2019, published 2022).
Where “and” joins values, the source holds several entries; their conditions need not be identical. Equal values may be shown once. Read-outs that look alike come from different tables or passages of the source.

Tests used:
[1] = system: D. immitis Mf, Missouri isolate; assay: Cell attachment assay (canine PMN or PBMC attachment to Mf), Missouri isolate; assay type: cell-based, Dirofilaria immitis
[2] = system: D. immitis Mf, Georgia-2 isolate; assay: Cell attachment assay (canine PMN or PBMC attachment to Mf), Georgia-2 isolate; assay type: cell-based, Dirofilaria immitis

Row | Structure (SMILES) | Percentage (±SEM) of Mf with cells attached ([1]; PBMC, 1 μM drug, Missouri Mf) | lowest drug concentration at which a statistically significant increase (p = <0.05) in cell attachment was observed compared to the no-drug control ([1]; PBMC, 40 h, Missouri Mf, 2-way ANOVA) | Percentage (±SEM) of Mf with cells attached ([1]; PMN, 1 μM drug, Missouri Mf) | lowest drug concentration at which a statistically significant increase (p = <0.05) in cell attachment was observed compared to the no-drug control ([1]; PMN, 24 h, Missouri Mf, 2-way ANOVA) | Percentage (±SEM) of Mf with cells attached ([2]; PBMC, 1 μM drug, Georgia-2 Mf) | lowest drug concentration at which a statistically significant increase (p = <0.05) in cell attachment was observed compared to the no-drug control ([2]; PBMC, 40 h, Georgia-2 Mf, 2-way ANOVA) | Percentage (±SEM) of Mf with cells attached ([2]; PMN, 1 μM drug, Georgia-2 Mf) | lowest drug concentration at which a statistically significant increase (p = <0.05) in cell attachment was observed compared to the no-drug control ([2]; PMN, 24 h, Georgia-2 Mf, 2-way ANOVA) | Percentage (±SEM) of Mf with cells attached [1] | lowest drug concentration at which a statistically significant increase (p = <0.05) in cell attachment was observed compared to the no-drug control [1] | Percentage (±SEM) of Mf with cells attached [2] | lowest drug concentration at which a statistically significant increase (p = <0.05) in cell attachment was observed compared to the no-drug control [2]
1 | CO/N=C1\C[C@]2(C[C@@H]3C[C@@H](C/C=C(\C)C[C@@H](C)/C=C/C=C4\CO[C@@H]5[C@H](O)C(C)=C[C@@H](C(=O)O3)[C@]45O)O2)O[C@H](/C(C)=C/C(C)C)[C@H]1C [MOX, moxidectin] | 63 ± 5% | 1 nM | 65 ± 5% | 3 nM | 63 ± 5% | 1 nM | 54 ± 6% | 3 nM | – | – | – | –
2 | CC[C@H](C)[C@H]1O[C@]2(CC[C@@H]1C)C[C@@H]1C[C@@H](C/C=C(\C)[C@@H](O[C@H]3C[C@H](OC)[C@@H](O[C@H]4C[C@H](OC)[C@@H](O)[C@H](C)O4)[C@H](C)O3)[C@@H](C)/C=C/C=C3\CO[C@@H]4[C@H](O)C(C)=C[C@@H](C(=O)O1)[C@]34O)O2 [IVM, ivermectin] | – | – | – | – | – | – | – | – | 48 ± 6% and 60 ± 3% | 3 nM | 41 ± 6% and 71 ± 5% | 1 nM
